This is an account of results in patent US20230159538A1, “PYRROLIDINE-PYRAZOLES AS PYRUVATE KINASE ACTIVATORS” (Global Blood Therapeutics, Inc., priority 2020, published 2023).

Each structure is given as a SMILES string.

For one experiment, the target named is PKR (Mus musculus, UniProt P53657). The note with it: mouse model of beta-thalassemia; cited from earlier work.
Experiment [1] deals with T1, Human pyruvate kinase R (PKR) (Homo sapiens, UniProt P30613).
T1 construct: Human pyruvate kinase R (PKR), residues 14-574; 6x-His (N, cleaved yes); 8x-Arg (N, cleaved yes); SUMO (N, cleaved yes); host or cells: E. coli
T1 sequence (P30613 14-574): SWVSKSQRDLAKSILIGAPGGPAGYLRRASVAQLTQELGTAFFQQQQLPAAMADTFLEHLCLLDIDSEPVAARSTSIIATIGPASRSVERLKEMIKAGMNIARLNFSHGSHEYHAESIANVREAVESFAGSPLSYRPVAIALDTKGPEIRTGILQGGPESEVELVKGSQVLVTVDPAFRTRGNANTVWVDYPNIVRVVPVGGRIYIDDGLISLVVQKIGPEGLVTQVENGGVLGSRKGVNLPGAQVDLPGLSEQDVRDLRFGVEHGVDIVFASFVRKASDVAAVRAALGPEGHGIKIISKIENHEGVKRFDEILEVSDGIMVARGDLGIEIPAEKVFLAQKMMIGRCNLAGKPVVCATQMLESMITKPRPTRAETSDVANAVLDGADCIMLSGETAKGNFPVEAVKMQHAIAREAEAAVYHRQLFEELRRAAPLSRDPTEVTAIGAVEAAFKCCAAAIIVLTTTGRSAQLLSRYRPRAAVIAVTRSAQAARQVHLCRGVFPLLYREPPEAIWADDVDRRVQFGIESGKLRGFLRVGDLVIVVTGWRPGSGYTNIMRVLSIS
Kind of experiment: Biochemical assay for activation of pyruvate kinase R (Kinase-Glo luminescence, ATP generation). The note with it: for AC50: 0.1 nM PKR, 2 mM FBP, 0.3 mM ADP, 0.1 mM PEP; for PKR % activation: maximal activation level relative to the activation level achieved by AG-348 @ 10 μM. The method in brief: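 E. coli-expressed human PKR, freed of its His-Arg-SUMO tag and purified by anion exchange and size exclusion, was tested for activation. Read-out was luminescent measurement of ATP generation with Kinase-Glo reagent.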
Background: Kinase-Glo measures the ATP left after a reaction by luminescence.

The target of experiment [2] is T2, Pyruvate kinase M2 (PKM2) in H1299 cells (Homo sapiens, UniProt P14618).
T2 construct: endogenous in cells; host or cells: H1299
T2 sequence (P14618 2-531 limits assumed): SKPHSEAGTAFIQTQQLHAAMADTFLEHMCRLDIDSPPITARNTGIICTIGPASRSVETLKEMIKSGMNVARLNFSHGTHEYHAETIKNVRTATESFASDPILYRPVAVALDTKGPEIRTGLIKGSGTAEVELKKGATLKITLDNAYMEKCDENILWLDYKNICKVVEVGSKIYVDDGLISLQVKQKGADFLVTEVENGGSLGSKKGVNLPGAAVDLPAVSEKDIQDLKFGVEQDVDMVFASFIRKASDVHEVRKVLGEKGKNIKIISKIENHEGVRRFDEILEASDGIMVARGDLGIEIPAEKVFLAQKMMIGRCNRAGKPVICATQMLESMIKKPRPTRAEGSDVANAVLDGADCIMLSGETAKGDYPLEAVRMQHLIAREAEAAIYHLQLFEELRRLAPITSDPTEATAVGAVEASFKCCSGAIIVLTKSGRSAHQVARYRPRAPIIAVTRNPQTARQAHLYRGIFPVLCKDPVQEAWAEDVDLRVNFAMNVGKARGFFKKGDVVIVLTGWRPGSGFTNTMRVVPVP
Put plainly: Cell based assay for activation of pyruvate kinase M2 in lung carcinoma cell line (NADH/LDH coupled assay on cell lysate). The following applies: PKM2 cellular assay; for AC50: H1299 cells, 90 minutes with compound; for PKM2 % activation: maximal activation level relative to the activation level achieved by AG-348 @ 10 μM. The procedure: Cell Based Assay for Activation of Pyruvate Kinase M2 in Lung Carcinoma Cell Line
H1299 cells were seeded in 96-well plates at 2,000 cells/well (100 uL). Treated plates were incubated overnight at 37° C. with 5% CO2. Compounds were diluted in complete media and added to cells in the presence of 1% DMSO. Cells were incubated with compound for 90 minutes at 37° C. and 5% CO2 before washing three times with PBS to remove residual compound and then lysed in lysis buffer (Cell Signaling). […] PKM2 activity was measured at steady state using a coupled enzyme activation system based on NADH consumption. PKM2 produces pyruvate and the coupled system uses lactate dehydrogenase (LDH) to reduce pyruvate to lactate with the concomitant oxidation of NADH to NAD^+. Conversion of NADH to NAD^+ was monitored using a SPECTROstar Nano plate reader (BMG Labtech) at a wavelength of 340 nm and subtraction of background absorbance measured at 750 nm. The change in NADH absorbance after PEP addition was monitored and slope obtained by subtracting baseline at 750 nm followed by least squares fitting to a simple linear regression model. A 10-point curve was generated to calculate the AC50 values by fitting the rates of NADH consumption against increasing concentration of compound.

Chain of PKR (P53657 whole entry): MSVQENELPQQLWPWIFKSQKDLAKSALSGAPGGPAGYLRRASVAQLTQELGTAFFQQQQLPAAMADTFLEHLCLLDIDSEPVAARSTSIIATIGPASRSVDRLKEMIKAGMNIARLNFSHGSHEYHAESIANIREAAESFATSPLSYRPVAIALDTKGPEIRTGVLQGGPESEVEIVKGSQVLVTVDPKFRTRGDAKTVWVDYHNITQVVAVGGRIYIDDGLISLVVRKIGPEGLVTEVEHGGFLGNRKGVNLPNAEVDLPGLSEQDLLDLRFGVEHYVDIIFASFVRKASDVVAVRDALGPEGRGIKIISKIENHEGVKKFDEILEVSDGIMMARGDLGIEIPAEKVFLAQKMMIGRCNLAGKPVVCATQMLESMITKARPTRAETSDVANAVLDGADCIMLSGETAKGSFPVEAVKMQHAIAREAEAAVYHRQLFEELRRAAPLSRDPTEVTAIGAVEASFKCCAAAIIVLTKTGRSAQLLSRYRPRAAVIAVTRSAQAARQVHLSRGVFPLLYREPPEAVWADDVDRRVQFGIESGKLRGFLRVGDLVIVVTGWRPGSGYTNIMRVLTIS

As to `O=C(c1ccc(NS(=O)(=O)c2cccc3cccnc23)cc1)N1CCN(CC2CC2)CC1` [AG-348, Mitapivat], the RBC parameters result on PKR is given as “improved”.

The term AC50 denotes the concentration giving half of the maximal activity seen. In the case of `C[C@@H](O)[C@H](C(=O)N1Cc2cn(S(=O)(=O)c3ccc4c(c3)NCCO4)nc2C1)c1ccccc1` [Compound 23], in experiment [1], half-maximal activity (AC50) was put at 56 nM and the PKR % activation came to 95%. Moreover, in experiment [2], the AC50 stood at 61 nM and the PKM2 % activation was found to be 116%.

In experiment [1], `C[C@@H](O)[C@H](C(=O)N1Cc2cn(S(=O)(=O)c3ccc4c(c3)NCCO4)nc2C1)c1ccccc1` [Compound 24] showed an AC50 of 78 nM and a PKR % activation of 65%. Moreover, in experiment [2], the AC50 was 59 nM and the PKM2 % activation is given as 63%.

Take `N[C@@H](C(=O)N1Cc2cn(S(=O)(=O)c3ccc(OC(F)F)cc3)nc2C1)c1cccc(F)c1` [Compound 29, (2R)-2-amino-1-{2-[4-(difluoromethoxy)benzenesulfonyl]-2H,4H,5H,6H-pyrrolo[3,4-c]pyrazol-5-yl}-2-(3-fluorophenyl)ethan-1-one]: the figures for the AC50 in experiment [1] and in experiment [2] were 92 nM and 25 nM, respectively.

Regarding `N[C@@H](C(=O)N1Cc2cn(S(=O)(=O)c3ccc4ncsc4c3)nc2C1)c1cccc(F)c1` [Compound 32, (2R)-2-amino-1-[2-(1,3-benzothiazole-6-sulfonyl)-2H,4H,5H,6H-pyrrolo[3,4-c]pyrazol-5-yl]-2-(3-fluorophenyl)ethan-1-one], the figures for the half-maximal activity concentration (AC50) in experiment [1] and in experiment [2] were 38 nM and 91 nM, respectively.

On to `Cc1cccc([C@@H](N)C(=O)N2Cc3cn(S(=O)(=O)c4ccc5ncsc5c4)nc3C2)c1` [Compound 37, (2R)-2-amino-1-[2-(1,3-benzothiazole-6-sulfonyl)-2H,4H,5H,6H-pyrrolo[3,4-c]pyrazol-5-yl]-2-(3-methylphenyl)ethan-1-one], for which the AC50 is 21 nM in experiment [1] and 17 nM in experiment [2].

With `O=C(N1Cc2cn(S(=O)(=O)c3ccc4ncsc4c3)nc2C1)C1(c2ccccc2)COC1` [Compound 40, 6-{[5-(3-phenyloxetane-3-carbonyl)-2H,4H,5H,6H-pyrrolo[3,4-c]pyrazol-2-yl]sulfonyl}-1,3-benzothiazole], the AC50 in experiment [1] came to 60 nM; in experiment [2], 31 nM.

Regarding `O=C([C@H](O)c1ccccc1)N1Cc2cn(S(=O)(=O)c3ccc4ncsc4c3)nc2C1` [Compound 42, (2R)-1-[2-(1,3-benzothiazole-6-sulfonyl)-2H,4H,5H,6H-pyrrolo[3,4-c]pyrazol-5-yl]-2-hydroxy-2-phenylethan-1-one], the half-maximal activity concentration (AC50) is 17 nM in experiment [1] and 16 nM in experiment [2].
